Experiments:
[1] = target: T1, PXR (NR1I2) (Homo sapiens, UniProt O75469); test: ATG_PXRE_CIS: Factorial reporter gene assay (HepG2); format: cell-based; parameters: endogenous in cells; host or cells: HepG2; details: HepG2
T1 sequence (O75469 1-434): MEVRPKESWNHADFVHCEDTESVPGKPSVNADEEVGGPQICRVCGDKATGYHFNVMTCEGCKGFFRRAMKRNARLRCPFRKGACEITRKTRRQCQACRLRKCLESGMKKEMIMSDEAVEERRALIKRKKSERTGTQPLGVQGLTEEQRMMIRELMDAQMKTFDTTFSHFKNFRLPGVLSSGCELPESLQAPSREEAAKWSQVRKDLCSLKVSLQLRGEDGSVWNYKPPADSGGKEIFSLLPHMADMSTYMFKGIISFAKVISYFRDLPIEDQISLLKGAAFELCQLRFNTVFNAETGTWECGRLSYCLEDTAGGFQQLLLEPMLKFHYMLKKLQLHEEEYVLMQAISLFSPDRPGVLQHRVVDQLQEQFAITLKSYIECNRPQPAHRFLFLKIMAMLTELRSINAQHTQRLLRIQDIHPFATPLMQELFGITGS
In short: (§1)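 HepG2 cells were transfected with a multiple reporter transcription unit (MRTU) library of 48 transcription factor binding sites for the cis-acting PXRE assay. The ERRg, FXR and PPARg assays used a trans mammalian one-hybrid system with a further 25-unit nuclear receptor MRTU library. Chemicals were tested at seven concentrations, from the MTC downward in three-fold steps.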

[2] = test system: CYP2B6; test: CLZD_CYP2B6: Change in expression of CYP2B6 (primary human hepatocytes); format: cell-based; details: 24 hr
In short: (§2)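 Read-out: mRNA change by multiplexed quantitative nuclease protection assay. Primary human hepatocytes; 5 concentrations, 0.004-40 µM; exposures 6, 24, 48 hr.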

[3] = test system: CYP3A4; test: CLZD_CYP3A4: Change in expression of CYP3A4 (primary human hepatocytes); format: cell-based; details: 24 hr
In short: as §2

[4] = target: T1, PXR (NR1I2); test: NVS_NR_hPXR: Human PXR Fluormone PXR (SXR) green (cell-free HTS); format: binding
In short: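 Responses were normalized to same-plate solvent controls as percent of neutral control. AC50 values came from Hill-equation fits of concentration-response curves.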

[5] = target: T2, PPARg (PPARG) (Homo sapiens, UniProt P37231); test: NVS_NR_hPPARg: Human PPARg Fluorescent Ligand (cell-free HTS); format: binding
T2 sequence (P37231 1-505): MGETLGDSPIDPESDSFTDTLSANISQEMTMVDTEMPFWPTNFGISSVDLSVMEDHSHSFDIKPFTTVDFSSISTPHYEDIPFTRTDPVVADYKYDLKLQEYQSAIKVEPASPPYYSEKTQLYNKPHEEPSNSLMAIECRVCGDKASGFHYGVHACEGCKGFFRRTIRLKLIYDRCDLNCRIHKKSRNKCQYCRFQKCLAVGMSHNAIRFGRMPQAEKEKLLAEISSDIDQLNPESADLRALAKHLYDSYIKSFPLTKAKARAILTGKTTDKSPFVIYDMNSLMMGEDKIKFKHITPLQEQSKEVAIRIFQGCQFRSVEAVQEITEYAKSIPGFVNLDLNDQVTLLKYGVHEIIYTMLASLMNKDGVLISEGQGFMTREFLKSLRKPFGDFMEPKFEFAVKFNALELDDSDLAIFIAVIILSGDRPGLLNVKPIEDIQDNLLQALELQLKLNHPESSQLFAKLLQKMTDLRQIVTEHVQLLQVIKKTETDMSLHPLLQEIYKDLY
Source text: (§3) These are a collection of biochemical assays measuring binding constants and enzyme inhibition values. Chemicals were initially screened at a single concentration in duplicate wells at a concentration of 10 [drawing 63] M for cytochrome P-450 assays and 25 [drawing 64] M for all others. […] These assays were run by Caliper Life Sciences (Hanover, MD) under contract to EPA. Short assay descriptions are available at: http://www.caliperls.com/products/contract-research/in-vitro/.
(§4) Cell-free HTS Assays: A collection of biochemical assays measuring binding constants and enzyme inhibition values. […] These assays were run by Caliper Life Sciences (Hanover, MD) under contract to EPA. Short assay descriptions are available at http://www.caliperls.com/products/contract-research/in-vitro/. Values for all endpoints were imported into GeneData Screener (Basel, Switzerland) and normalised to solvent controls from the same plate as the tested compounds and expressed as percent of neutral control. Concentration-response curves were fit in GeneData Screener (Basel, Switzerland) Condeseo module using the Hill equation and AC50 values were determined. […] Detailed description of the methods, data and analysis methods for this dataset are described in a separate publication.

[6] = target: T3, PPARG (peroxisome proliferator-activated receptor gamma) (Homo sapiens, UniProt P37231); test: ATG_PPARg_TRANS: Factorial reporter gene assay (HepG2); format: cell-based; details: HepG2
T3 construct: expressed in transfected cells; host or cells: HepG2
T3 sequence (P37231 1-505): T2 sequence (P37231 1-505)
In short: as §1

[7] = test system: AR (androgen receptor); test: NVS_NR_hAR: Human AR 3H-Methyltrienolone (cell-free HTS); format: binding
Source text: as §3, §4

[8] = target: T4, PPARA (peroxisome proliferator-activated receptor alpha) (Homo sapiens, UniProt Q07869); test: ATG_PPARa_TRANS: Factorial reporter gene assay (HepG2); format: cell-based; parameters: scale not given here
T4 construct: expressed in transfected cells; host or cells: HepG2
T4 sequence (Q07869 1-468): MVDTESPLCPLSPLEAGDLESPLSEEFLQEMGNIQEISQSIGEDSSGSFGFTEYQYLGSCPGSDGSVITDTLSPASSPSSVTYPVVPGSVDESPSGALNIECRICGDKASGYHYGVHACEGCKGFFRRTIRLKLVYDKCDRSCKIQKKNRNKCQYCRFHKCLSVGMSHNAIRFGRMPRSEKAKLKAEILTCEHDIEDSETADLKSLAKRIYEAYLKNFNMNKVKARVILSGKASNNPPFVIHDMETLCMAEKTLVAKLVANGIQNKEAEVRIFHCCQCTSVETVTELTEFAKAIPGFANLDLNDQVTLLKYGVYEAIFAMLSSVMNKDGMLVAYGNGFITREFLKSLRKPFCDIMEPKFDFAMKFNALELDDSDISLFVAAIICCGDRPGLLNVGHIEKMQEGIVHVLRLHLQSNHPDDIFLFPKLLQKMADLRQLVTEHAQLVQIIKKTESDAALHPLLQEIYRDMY
Experimental: A multiple reporter transcription unit (MRTU) library consisting of 48 transcription factor binding sites was transfected into the HepG2 human liver hepatoma cell line. In addition to the cis-acting reporter genes (CIS), a modification of the approach was used to generate a trans-system (TRANS) with a mammalian one-hybrid assay consisting of an additional 25 MRTU library reporting the activity of nuclear receptor super-family members. […] These assays were performed by Attagene Inc. (Morrisville NC) under contract to EPA.
In addition to the cis-acting reporter genes (CIS), a modification of the approach was used to generate a trans-system (TRANS) with a mammalian one-hybrid assay consisting of an additional 25 MRTU library reporting the activity of nuclear receptor super-family members. […] Chemicals were then tested in the CIS and TRANS assays at seven concentrations starting at the MTC and followed by three-fold serial dilutions. These assays were performed by Attagene Inc. (Morrisville NC) under contract to EPA. Detailed description of the methods, data and analysis methods for this dataset will be presented in a separate publication.

Compound | ATG_PXRE_CIS [1] | CLZD_CYP2B6_24 [2] | CLZD_CYP3A4_24 [3] | NVS_NR_hPXR [4] | NVS_NR_hPPARg [5] | ATG_PPARg_TRANS [6] | NVS_NR_hAR [7] | ATG_PPARa_TRANS [8]
O=S(=O)(O)C(F)(F)C(F)(F)C(F)(F)C(F)(F)C(F)(F)C(F)(F)C(F)(F)C(F)(F)F [r240] | 4.745 | 4.97 | 4.541 | 4.496 | 4.932 | 4.585 | 4.625 | –
O=C(O)C(F)(F)C(F)(F)C(F)(F)C(F)(F)C(F)(F)C(F)(F)C(F)(F)F [r241] | 4.367 | – | – | – | – | – | – | 4.377

— PMC3038857, “Using Nuclear Receptor Activity to Stratify Hepatocarcinogens” (PLoS ONE, 2011)
